Measurements as given in PMC11404609, “Gut microbiota-mediated C-sulfonate metabolism impairs the bioavailability and anti-cholestatic efficacy of andrographolide” (Gut Microbes, 2024).

Experiments:
[1] = Plasma pharmacokinetics of AP after oral administration in mice; format: in vivo; details: for Fr (%) relative oral bioavailability / AUC(0-inf) / AUC(0-t) / Cmax / Tmax / half-life: AP 100 mg/kg oral gavage; for AUC(0-inf) / AUC(0-t) / Cmax / Tmax / half-life: mouse, plasma, po, 100 mg/kg, mean ± SD
Protocol: Mice were orally administered APS reductase inhibitor bromocriptine mesylate (20 mg/kg, p.o.) or Na2SO4 (200 mg/kg, p.o.) or saline solution 1 week prior to AP treatment (a single dose of AP at 100 mg/kg, p.o.). Blood samples (50 μL) were collected at predetermined time points (0, 10, 20, 40, 60, 90, 120, 240, 360 min). In specific cases, mice were orally administrated with D. piger suspension (0.2 mL, 1 × 10^9 CFU/mL) or saline solution by oral gavage for 2 weeks before AP treatment (a single dose of AP at 100 mg/kg, p.o.).
The pharmacokinetic parameters of AP including peak time (Tmax), maximum concentration (Cmax), area under the curve from zero time to the last time point measured (AUC0-t), area under the curve from zero time to infinity (AUC0-∞), and elimination half-life (t1/2) were estimated using DAS 2.0 software (Shanghai, China). The relative oral bioavailability (Fr) of AP was calculated by the following equation: Fr(%)=AUC0−∞of ABX/Inhibitor/SO42−/D.piger/AUC0−∞of Control×100%
An ACQUITY^TM UPLC-MS/MS system equipped with an ACQUITY^TM UPLC BEH C18 Column (50 × 2.1 mm I.D., 1.7 μm, Waters, Milford, MA, USA) was utilized for the quantification of AP and APM as previously described.[47] Briefly, the detection samples (50 μL) were mixed with 50 μL of IS (50 ng/mL). AP and APM were extracted by 400 μL cold methanol. Supernatants were dried under nitrogen stream. Then, the residue was dissolved with 50% methanol in water, centrifuged for 30 min at 13,000 rpm, and 10 µL of the supernatant was subjected to UPLC-MS/MS analysis. The mobile phases consisted of eluent A (water) and eluent B (methanol) with a gradient elution as follows: 0–0.8 min, 10% B; 0.8–1.2 min, 10–90% B; 1.2–5.0 min, 90% B; 5.0–5.5 min, 90–10% B; 5.5–7.0 min, 10% B. The flow rate was 0.3 mL/min and the injection volume of all samples was 10 μL. The quantification of AP, APM and IS was performed by UPLC-MS/MS using an MRM method with the transitions of m/z 349.1→m/z 287.2 for AP, m/z 413.2→m/z 287.2 for APM, m/z 269→m/z 133 for IS.

[2] = In-situ single-pass intestinal perfusion of AP; format: in vivo; details: rats, AP 20 μM co-perfused with Na2SO4 40 μM vs AP alone
Protocol: The rat intestinal perfusion experiment was conducted based on previous literature reports^6, 7. The experimental animals were divided into two groups: Control and SO4^2- groups. Rats were anaesthetised via the intraperitoneal injection of 50% urethane at a dose of 2.4 mL/kg. Two segments of the intestine, specifically the duodenum and jejunum, each measuring 5-10 cm in length, were cannulated simultaneously. The primary tube was affixed to a syringe controlled by an infusion pump (Model PHD2000 Harvard Apparatus, Cambridge, Massachusetts). The inlet cannula was insulated and maintained in a constant temperature of 37°C in circulating water bath to ensure the perfusate’s thermal stability. Following the surgical procedure, the two segments of Control group were perfused with 20 μM AP, and the two segments of SO4^2- group were co-perfused with AP (20 μM) and Na2SO4 (40 μM). The perfusion was conducted at the flow rate of 0.17 mL/min and perfusate samples were collected every 15 min (15, 30, 45, 60, 75, and 90 min). The concentrations of AP and APM in the perfusate at the outlet were determined through UPLC-MS/MS analysis.

[3] = mice, Control group (Table 3), n = 10
[4] = mice, Control group (Table 4), n = 12
[5] = mice, D. piger group (D. piger suspension by gavage 2 weeks before), n = 12
[6] = mice, Inhibitor group (bromocriptine mesylate 20 mg/kg p.o. 1 week before), n = 10
[7] = mice, SO4^2- group (Na2SO4 200 mg/kg p.o. 1 week before), n = 10

reduction in AP bioavailability ([1]; mice colonized with D. piger): 60.11%
Fr (%) relative oral bioavailability ([1]; mice, D. piger group vs Control (AUC0-∞ ratio)): 39.89%
Fr (%) relative oral bioavailability ([1]; mice, Inhibitor group vs Control (AUC0-∞ ratio)): 147.48%
Fr (%) relative oral bioavailability ([1]; mice, SO4^2- group vs Control (AUC0-∞ ratio)): 29.42%
increase in AP bioavailability ([1]; mice, inhibition of APS reductase by bromocriptine mesylate): 47.48%
reduction in AP bioavailability ([1]; mice, treatment of Na2SO4): 70.58%
AUC(0-inf) [1, 3]: 772 ng·h/mL
AUC(0-t) [1, 3]: 646 ng·h/mL
Cmax [1, 3]: 500 ± 330 ng/mL
Tmax [1, 3]: 32 min
half-life [1, 3]: 146 ± 67.4 min
AUC(0-inf) [1, 4]: 1030 ng·h/mL
AUC(0-t) [1, 4]: 909 ng·h/mL
Cmax [1, 4]: 760 ± 440 ng/mL
Tmax [1, 4]: 41.7 min
half-life [1, 4]: 136 ± 65.2 min
AUC(0-inf) [1, 5]: 411 ng·h/mL
AUC(0-t) [1, 5]: 374 ng·h/mL
Cmax [1, 5]: 360 ± 280 ng/mL
Tmax [1, 5]: 35 min
half-life [1, 5]: 77.2 ± 38.6 min
AUC(0-inf) [1, 6]: 1140 ng·h/mL
AUC(0-t) [1, 6]: 906 ng·h/mL
Cmax [1, 6]: 970 ± 370 ng/mL
Tmax [1, 6]: 27 min
half-life [1, 6]: 146 ± 86.4 min
AUC(0-inf) [1, 7]: 227 ng·h/mL
AUC(0-t) [1, 7]: 199 ng·h/mL
Cmax [1, 7]: 142 ± 30 ng/mL
Tmax [1, 7]: 17 min
half-life [1, 7]: 133 ± 104 min
AP C-sulfonate metabolism [2]: substantial increase
Compound: C=C1CC[C@@H]2[C@](C)(CO)[C@H](O)CC[C@@]2(C)[C@@H]1C/C=C1/C(=O)OC[C@H]1O [AP, Andrographolide]
